Reference: patent US5178662A, “Benzaldehyde acetal compounds, preparation process thereof, and herbicidal compositions containing the same as active ingredients” (Mitsui Toatsu Chemicals, Inc., priority 1990, dated 1993)

Experiments:
[1] = system: ALS (acetolactate syntase) from barnyardgrass seedlings; experiment: ALS (acetolactate syntase) inhibition test, barnyardgrass enzyme; assay type: biochemical; conditions: 10,000 ppm (0.5 μg/0.5 ml) of compound; 1 hour at 30° C.; absorbance at 525 nm
Method: (§1) To determine the selectivity in enzyme level between crops and weeds, an ALS inhibition test was conducted using pea as a typical broadleaf crop and barnyardgrass as a representative gramineous weeds.
(§2) After seeds of pea and barnyardgrass were allowed to germinate at 25° C. for 8-14 days in a dark place, partially-purified suspensions (Suspensions A) of acetolactate syntase were separately obtained from the seedlings in accordance with the procedures described in the literature, Plant Physiology, 75, 827-831. In a test tube, 0.5 mg of one of test compounds was weighed, followed by the addition of 0.15 ml of a 20 mM K2 HPO4 solution and 0.25 ml of a reaction substrate medium which consisted of 40 mM of K2 HPO4, 40 mM of sodium pyruvate, 1 mM of TPP, 1 mM of MgCl2 and 20 μM of FAD so that 0.4 ml of a reaction solution (Solution B) was prepared. Added to 0.4 ml of Solution B was 0.1 ml of Suspension A. After the resultant mixture was shaken for 1 hour in a thermostat water bath controlled at 30° C., 50 μl of 6N sulfuric acid were added to terminate the reaction.
(§3) Next, the test tube with the reaction-terminated liquid mixture contained therein was transferred into a thermostat water bath controlled at 60° C. and was heated for 15 minutes. Thereafter, 0.5 ml of a 0.5% creatine solution and 0.5 ml of a 5% alkaline α-naphthol solution were added, and the resultant mixture was maintained at 60° C. for 15 minutes. As a result, the test solution developed a pink-to-red color. After the above operation, the absorbance of the test solution at 525 nm was measured by a spectrophotometer (Absorbance 1 of Test Compound).
(§4) Further, the absorbance (Absorbance 2 of Blank) of a solution obtained by subjecting a portion of Solution B to the above procedures without addition of any test compound and the absorbance (Absorbance 3 of sulfuric acid) of another solution obtained by subjecting another portion of Solution B to the above procedures which using 50 μl of 6N sulfuric acid as a test compound were also measured.

[2] = system: ALS (acetolactate syntase) from pea seedlings; experiment: ALS (acetolactate syntase) inhibition test, pea enzyme; assay type: biochemical; conditions: 10,000 ppm (0.5 μg/0.5 ml) of compound; 1 hour at 30° C.; absorbance at 525 nm
Method: as §1, §2, §3, §4

[3] = system: Amaranth (Amaranthus viridis); experiment: Upland soil application test, amaranth; assay type: in vivo; conditions: 1200 h, soil application one day after seeding, 50 g ai/a, wettable powder, fresh weight on 50th day after spray, read-out: Herbicidal effects Amaranth (Amaranthus viridis)
Method: (§5) Resin-made 1/1000-are pots were filled with the soil of an upland field. After they were fertilized, cotton and soybean were seeded and 3 cm soil covering was applied. In addition, amaranth, common lambs-quarters, barnyardgrass, green foxtail, large crabgrass and johnsongrass were seeded and 1 cm soil covering was applied. One day later, a wettable powder prepared from a predetermined amount of each test compound in a similar manner to the procedures described in Formulation Example 1 was diluted with water and then sprayed evenly at an application rate equal to 10 l per are onto the surface of the soil by means of a pressure-operated sprayer. The weeds and crops were allowed to grow in a green house and influence to them were observed on the 50th day after the spray. The degree of damages of each test plant and the degree of injury to each crop were determined by measuring fresh weight in each group and indicated by % calculated according to the following formula. [formula]

common lambsquarters [4] = experiment: Upland soil application test, common lambsquarters; assay type: in vivo; conditions: Chenopodium album, 1200 h; soil application one day after seeding, 50 g ai/a, wettable powder, fresh weight on 50th day after spray; read-out: Herbicidal effects Common lambquarters
Method: as §5

[5] = system: Barnyardgrass (Echinochloa crusgalli); experiment: Upland soil application test, barnyardgrass; assay type: in vivo; conditions: Echinochloa crus-galli, 1200 h; soil application one day after seeding, 50 g ai/a, wettable powder, fresh weight on 50th day after spray; read-out: Herbicidal effects Barnyardgrass (Echinochloa crusgalli)
Method: as §5

[6] = system: Foxtail (Setaria viridis); experiment: Upland soil application test, green foxtail; assay type: in vivo; conditions: 1200 h, soil application one day after seeding, 50 g ai/a, wettable powder, fresh weight on 50th day after spray, read-out: Herbicidal effects Foxtail (Setaria viridis)
Method: as §5

[7] = system: Crabgrass (Digitaria adscendens); experiment: Upland soil application test, large crabgrass; assay type: in vivo; conditions: 1200 h, soil application one day after seeding, 50 g ai/a, wettable powder, fresh weight on 50th day after spray, read-out: Herbicidal effects Crabgrass (Digitaria adscendens)
Method: as §5

Johnsongrass [8] = experiment: Upland soil application test, johnsongrass; assay type: in vivo; conditions: Sorghum halepense, 1200 h; soil application one day after seeding, 50 g ai/a, wettable powder, fresh weight on 50th day after spray; read-out: Herbicidal effects Johnsongrass
Method: as §5

Soybean (Glycine max) [9] = experiment: Upland soil application test, crop injury soybean; assay type: in vivo; conditions: soil application one day after seeding, 50 g ai/a, wettable powder, fresh weight on 50th day after spray
Method: as §5

[10] = system: Cotton (Gossypium indicum); experiment: Upland soil application test, crop injury cotton; assay type: in vivo; conditions: soil application one day after seeding, 50 g ai/a, wettable powder, fresh weight on 50th day after spray
Method: as §5

[11] = system: Amaranth (Amaranthus viridis); experiment: Upland foliar application test, amaranth; assay type: in vivo; conditions: 960 h, foliar application at stage of 2-3 leaves, 50 g ai/a, emulsion, 40th day after spray, read-out: Herbicidal effects Amaranth (Amaranthus viridis)
Method: as §5
(§6) Resin-made 1/1000-are pots were filled with the soil of an upland field. After they were fertilized, cotton and soybean were seeded and 3 cm soil covering was applied. Five days later, amaranth, common lambsquarters, barnyardgrass, green foxtail, large crabgrass and johnsongrass were seeded and 1 cm soil covering was applied. They were allowed to grow in a green house. When each plant grew to the stage of 2-3 leaves, an emulsion formulated from a predetermined amount of each test compound in a similar manner to the procedures described in Formulation Example 11 was diluted with water and then sprayed at a predetermined application rate by means of a pressure-operated sprayer. The application rate was controlled at 5 l per are. Influence to the crops and weeds were observed on the 40th day after the spray of the herbicides. The results are shown in Table 4 in which the degree of damages of each test plant and the degree of injury to each crop are shown in a similar manner to Test 2.

common lambsquarters [12] = experiment: Upland foliar application test, common lambsquarters; assay type: in vivo; conditions: Chenopodium album, 960 h; foliar application at stage of 2-3 leaves, 50 g ai/a, emulsion, 40th day after spray; read-out: Herbicidal effects Common lambquarters
Method: as §6

[13] = system: Barnyardgrass (Echinochloa crusgalli); experiment: Upland foliar application test, barnyardgrass; assay type: in vivo; conditions: Echinochloa crus-galli, 960 h; foliar application at stage of 2-3 leaves, 50 g ai/a, emulsion, 40th day after spray; read-out: Herbicidal effects Barnyardgrass (Echinochloa crusgalli)
Method: as §6

[14] = system: Foxtail (Setaria viridis); experiment: Upland foliar application test, green foxtail; assay type: in vivo; conditions: 960 h, foliar application at stage of 2-3 leaves, 50 g ai/a, emulsion, 40th day after spray, read-out: Herbicidal effects Foxtail (Setaria viridis)
Method: as §5, §6

[15] = system: Crabgrass (Digitaria adscendens); experiment: Upland foliar application test, large crabgrass; assay type: in vivo; conditions: 960 h, foliar application at stage of 2-3 leaves, 50 g ai/a, emulsion, 40th day after spray, read-out: Herbicidal effects Crabgrass (Digitaria adscendens)
Method: as §5, §6

Johnsongrass [16] = experiment: Upland foliar application test, johnsongrass; assay type: in vivo; conditions: Sorghum halepense, 960 h; foliar application at stage of 2-3 leaves, 50 g ai/a, emulsion, 40th day after spray; read-out: Herbicidal effects Johnsongrass
Method: as §6

Soybean (Glycine max) [17] = experiment: Upland foliar application test, crop injury soybean; assay type: in vivo; conditions: foliar application at stage of 2-3 leaves, 50 g ai/a, emulsion, 40th day after spray
Method: as §6

[18] = system: Cotton (Gossypium indicum); experiment: Upland foliar application test, crop injury cotton; assay type: in vivo; conditions: foliar application at stage of 2-3 leaves, 50 g ai/a, emulsion, 40th day after spray
Method: as §5, §6

[19] = system: johnsongrass emerging from rhizome; experiment: Application test on johnsongrass emerging from rhizome; assay type: in vivo; conditions: foliar application at stage of 4-5 leaves, application rate of active ingredient 20 (unit not given), emulsion, 50th day after spray
Method: as §5
Resin-made 1/1000-are pots were filled with the soil of an upland field. After they were fertilized, rhizome of johnsongrass were transplanted to the pots and 3 cm soil covering was applied. They were allowed to grow in a green house. When each johnsongrass grew to the stage of 4-5 leaves, an emulsion formulated from a predetermined amount of each test compound in a similar manner to the procedures described in Formulation Example 11 was diluted with water and then sprayed at a predetermined application rate by means of a pressure-operated sprayer. The application rate was controlled at 5 l per are. The effect of each compound against the johnsongrass emerging from its rhizome was observed on the 50th day after the spray of the herbicides. The results are shown in Table 5 in which the herbicidal effect against johnsongrass is shown in a similar manner to Test 2.

Structure (SMILES): CCCOC(OCCC)c1ccccc1Oc1nc(OC)cc(OC)n1 [Compound No. 1]
- Enzymoreaction inhibition rate (%) Barnyardgrass [1]: 100%
- Enzymoreaction inhibition rate (%) Pea [2]: 0%
- pest or weed control at 5000 g/ha [3]: 100%
- pest or weed control at 5000 g/ha (common lambsquarters [4]): 100%
- pest or weed control at 5000 g/ha [5]: 100%
- pest or weed control at 5000 g/ha [6]: 100%
- pest or weed control at 5000 g/ha [7]: 100%
- pest or weed control at 5000 g/ha (Johnsongrass [8]): 100%
- Crop injury Soybean (Glycine max) (Soybean (Glycine max) [9]): 0%
- Crop injury Cotton (Gossypium indicum) [10]: 0%
- pest or weed control at 5000 g/ha [11]: 100%
- pest or weed control at 5000 g/ha (common lambsquarters [12]): 100%
- pest or weed control at 5000 g/ha [13]: 100%
- pest or weed control at 5000 g/ha [14]: 100%
- pest or weed control at 5000 g/ha [15]: 100%
- pest or weed control at 5000 g/ha (Johnsongrass [16]): 100%
- Crop injury Soybean (Glycine max) (Soybean (Glycine max) [17]): 0%
- Crop injury Cotton (Gossypium indicum) [18]: 0%
- Herbicidal effect against johnsongrass emerging from rhizome [19]: 100%

Structure (SMILES): COc1cc(OC)nc(Oc2ccccc2C(OC(C)C)OC(C)C)n1 [Compound No. 2]
- Enzymoreaction inhibition rate (%) Barnyardgrass [1]: 100%
- Enzymoreaction inhibition rate (%) Pea [2]: 0%
- pest or weed control at 5000 g/ha [3]: 80%
- pest or weed control at 5000 g/ha (common lambsquarters [4]): 85%
- pest or weed control at 5000 g/ha [5]: 80%
- pest or weed control at 5000 g/ha [6]: 85%
- pest or weed control at 5000 g/ha [7]: 80%
- pest or weed control at 5000 g/ha (Johnsongrass [8]): 100%
- Crop injury Soybean (Glycine max) (Soybean (Glycine max) [9]): 0%
- Crop injury Cotton (Gossypium indicum) [10]: 0%
- pest or weed control at 5000 g/ha [11]: 100%
- pest or weed control at 5000 g/ha (common lambsquarters [12]): 80%
- pest or weed control at 5000 g/ha [13]: 80%
- pest or weed control at 5000 g/ha [14]: 100%
- pest or weed control at 5000 g/ha [15]: 85%
- pest or weed control at 5000 g/ha (Johnsongrass [16]): 100%
- Crop injury Soybean (Glycine max) (Soybean (Glycine max) [17]): 0%
- Crop injury Cotton (Gossypium indicum) [18]: 0%
- Herbicidal effect against johnsongrass emerging from rhizome [19]: 95%
